Experimental data as given in US5627191A, “Therapeutic agents” (The Boots Company PLC, priority 1992, dated 1997).
Counter-ions that a name gives are not always drawn.

Experiments:
[1] = test system: Aoki-Okamoto strain of spontaneously hypertensive rat; assay: Test C: oral antihypertensive effect after pretreatment with bendrofluazide, threshold dose; format: in vivo; settings: pretreated with bendrofluazide 10 mg/kg at 16 hours and 2 hours prior to dose
Protocol: (§1) In test A the binding affinity of compounds to the adrenal membrane angiotensin II receptor was determined in vitro and in tests B and C the antihypertensive effect of the compounds was measured in vivo. A detailed description of the tests follows.
(§2) Female rats, weight range 180-240 g, of the Aoki-Okamoto strain of spontaneously hypertensive rat were used. The rats in groups of four were fasted overnight before administration of the test compound. Blood pressure was determined in the following way. The rats were placed in a cabinet kept at 38° C. with their tails protruding through holes in the cabinet. After 30 minutes in the cabinet blood pressure was measured using an inflatable cuff placed round the base of the mail and arterial pulsations monitored with a pneumatic pulse transducer. […] The pressure in the cuff at which arterial pulsations reappeared was taken as the blood pressure. The rats were removed from the cabinet and each group orally dosed with a given dose of the test compound given as a solution or suspension in 0.25% aqueous carboxymethylcellulose. In addition to the predose reading, blood pressure was measured at 1.5 and 5.0 hours after dosing. The degree of blood pressure reduction sufficient to achieve a significance level of p<0.01 compared to controls was 9% after correction for control changes at appropriate time intervals. Thus, compounds were considered to be active in this test if they produced a reduction of blood pressure after correction of 9% or greater than 9%.
(§3) Threshold antihypertensive doses of compounds of formula I were determined in the following way. Compounds were tested initially at a particular dose level, for example 90 mg/kg.
The procedure of Test B above was carried out subject to the modification of pretreating the rats with bendrofluazide 10 mg/kg (an orally administered diuretic) at 16 hours and 2 hours prior to the dose of the test compound, to ensure activation of the reninangiotensin system.
The activities of the compounds described in the Examples given hereinafter are set out below in Table A, Column 3.

[2] = molecular target: T1, adrenal membrane angiotensin II receptor (Oryctolagus cuniculus, UniProt P34976); assay: Test A: binding affinity to the adrenal membrane angiotensin II receptor in vitro; set-up: species or system rabbit (male New Zealand white); settings: rabbit adrenal membranes, 0.05 nM [^125 I]angiotensin II, 60 minutes at 25° C.; read-out: Ki from Test A
T1 construct: Aliquots of rabbit adrenal membranes containing 10-30 μg protein were incubated; from tissue; host or cells: adrenal gland membranes of male New Zealand white rabbits
T1 sequence (P34976 1-359): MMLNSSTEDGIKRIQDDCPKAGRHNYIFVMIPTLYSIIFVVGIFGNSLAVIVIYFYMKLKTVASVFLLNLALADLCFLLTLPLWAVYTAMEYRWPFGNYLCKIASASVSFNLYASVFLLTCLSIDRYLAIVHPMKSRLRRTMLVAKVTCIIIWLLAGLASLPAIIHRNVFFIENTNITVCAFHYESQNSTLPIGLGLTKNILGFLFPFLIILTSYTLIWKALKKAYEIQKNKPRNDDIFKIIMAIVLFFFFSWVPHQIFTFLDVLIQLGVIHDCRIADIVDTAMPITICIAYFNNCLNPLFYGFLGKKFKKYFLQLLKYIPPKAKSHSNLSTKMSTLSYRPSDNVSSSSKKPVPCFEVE
Protocol: In test A the binding affinity of compounds to the adrenal membrane angiotensin II receptor was determined in vitro and in tests B and C the antihypertensive effect of the compounds was measured in vivo. A detailed description of the tests follows. Test A 1) Preparation of Membranes Adrenal glands from male New Zealand white rabbits were homogenised on ice in 20 mM aqueous sodium bicarbonate solution containing 50 μM PMSF (phenylmethanesulphonyl fluoride) (2 ml/g wet weight) using a Polytron (Trademark) homogeniser for 3×15 seconds at setting 8. The homogenate was centrifuged at 900 g for 10 minutes at 4° C. and the pellet was discarded. The supernatant was recentrifuged at 30000 g for 30 minutes at 4° C., and the resulting pellet was resuspended in assay buffer (50 mM Tris-HCl, pH 7.4, containing 1 mM EDTA, 6.5 mM MgCl2, 125 mM NACl, 50 μM PMSF, 5 μg/ml pepstatin and 50 μg/ml each of leupeptin, antipain, aprotinin and chymostatin): 10 ml per g original tissue wet weight. Polyethylene glycol was added (final concentration 30%) as a cryopreservant and the membrane preparation divided into aliquots and stored at -80° C. until required. Protein was determined by a modification of the method of Lowry (Markwell et al, (1978) Anal. Biochem., 87: 206-210). 2) Binding Assay Aliquots of rabbit adrenal membranes containing 10-30 μg protein were incubated with 0.05 nM [^125 I]angiotensin II in the presence or absence of potential angiotensin II antagonists in 1 ml polyamide tubes in a total volume of 200 μI assay buffer. After incubation for 60 minutes am 25° C. the reaction was terminated by the addition of ice-cold assay buffer, and the bound and free radioactivity was separated through Skatron (Trademark) receptor-binding filters, pre-wetted with assay buffer, using a Skatron cell harvester. The filters were washed with ice-cold phosphate buffered saline, dried, and the trapped radioactivity was determined using a gamma counter. Non-specific binding, measured in the presence of 2 μM unlabelled angiotensin II, was subtracted from total binding to obtain specific binding. Radioligand binding curves were analysed using EBDA and LIGAND (Cambridge Biosoft). Values for binding affinity were obtained by nonlinear regression analysis of untransformed data. The activities of the compounds described in the Examples given hereinafter are set out below in Table A, Column 1.

[3] = test system: Aoki-Okamoto strain of spontaneously hypertensive rat; assay: Test B: oral antihypertensive effect, threshold dose; format: in vivo; settings: dose giving a reduction of blood pressure of between 9 and 16% after correction, 1.5 and 5.0 hours after dosing; for minimal effective dose: Rattus norvegicus, po, 5 h, read-out: Threshold anti-hypertensive dose from Test B
Protocol: as §1, §2, §3
The activities of the compounds described in the Examples given hereinafter are set out below in Table A, Column 2.

Row | Ki [2] [µM] | SMILES | Threshold anti-hypertensive dose from Test C [1] [mg/kg] | minimal effective dose [3] [mg/kg] | Threshold anti-hypertensive dose from Test B [3] [mg/kg]
1 | 0.0779 | CCCCc1nc(Cl)c(/C=C(\Cc2ccccc2)C(=O)O)n1Cc1ccc(-c2c(O)c(=O)c2=O)cc1 [Example 30, (E)-2-benzyl-3-[2-butyl-4-chloro-1-[4-(2-hydroxy-3,4-dioxocyclobut-1-en-1-yl)benzyl]-1H-imidazol-5-yl]propenoic acid] | ≤ 10 |  | 
2 | 0.4 | CCc1nc2c(C)cc(C)nc2n1Cc1ccc(-c2ccccc2-c2c(N)c(=O)c2=O)cc1 [Example 6, 3-amino-4-[4'-(2-ethyl-5,7-dimethyl-3H-imidazo[4,5-b]pyrid-3-ylmethyl)biphenyl-2-yl]cyclobut-3-ene-1,2-dione] |  |  | 
3 | 0.0137 | CCCCc1nc(Cl)c(C(=O)O)n1Cc1ccc(-c2ccccc2-c2c(O)c(=O)c2=O)cc1 [Example 29, 2-butyl-4-chloro-1-[2'-(2-hydroxy-3,4-dioxocyclobut-1-en-1-yl)biphenyl-4-ylmethyl]-1H-imidazole-5-carboxylic acid 0.4 hydrochloride] | 3 | > 3 | 
4 | 0.0135 | CCCc1nc(CC)c(C=O)n1Cc1ccc(-c2ccccc2-c2c(O)c(=O)c2=O)cc1 [Example 15, 4-ethyl-1-[2'-(2-hydroxy-3,4-dioxocyclobut-1-en-1-yl)biphenyl-4-ylmethyl]-2-propyl-1H-imidazole-5-carboxaldehyde] | 3 |  | 
5 | 0.0817 | CCCCN(Cc1ccc(-c2ccccc2-c2c(O)c(=O)c2=O)cc1)c1ncncc1C(=O)O [Example 20, 4-[N-butyl-N-[2'-(2-hydroxy-3,4-dioxocyclobut-1-en-1-yl)biphenyl-4-ylmethyl]amino]pyrimidine-5-carboxylicacid 0.6 hydrochloride] | 1 | 3 | 
6 | 0.00371 | CCCc1nc2c(C)cc(C)nc2n1Cc1ccc(-c2ccccc2-c2c(O)c(=O)c2=O)cc1 [Example 9, sodium salt of 3-[4'-(5,7-dimethyl-2-propyl-3H-imidazo[4,5-b]-pyrid-3-ylmethyl)biphenyl-2-yl]-4-hydroxycyclobut-3-ene-1,2-dione] | 0.1 |  | 10
7 | 0.005 | CCc1nc2c(C)cc(C)nc2n1Cc1ccc(-c2ccccc2-c2c(O)c(=O)c2=O)cc1 (single isomer, unassigned) [Example 4, 3-[4'-(2-ethyl-5,7-dimethyl-3H-imidazo[4,5-b]pyrid-3-ylmethyl)biphenyl-2-yl]-4-hydroxycyclobut-3-ene-1,2-dione] | 0.1 |  | 0.1
8 | 0.019 | CCc1nc2c(C)cc(C)nc2n1Cc1ccc(-c2ccccc2-c2c(OCOC(=O)C(C)(C)C)c(=O)c2=O)cc1 [Example 13, 2-[4'-(2-ethyl-5,7-dimethyl-3H-imidazo[4,5-b]pyrid-3-ylmethyl)biphenyl-2-yl]-3,4-dioxocyclobut-1-en-1-yloxymethyl pivalate] | < 10 | 10 | 
9 | 0.0111 | CCCCc1nc(Cl)c(C=O)n1Cc1ccc(-c2ccccc2-c2c(O)c(=O)c2=O)cc1 [Example 24, 2-butyl-4-chloro-1-[2'-(2-hydroxy-3,4-dioxocyclobut-1-en-1-yl)biphenyl-4-ylmethyl]-1H-imidazole-5-carboxaldehyde] | 3 |  | 
10 | 0.0277 | CCCCc1nc(Cl)c(C(=O)OC)n1Cc1ccc(-c2ccccc2-c2c(O)c(=O)c2=O)cc1 [Example 28, methyl 2-butyl-4-chloro-1-[2'-(2-hydroxy-3,4-dioxo-cyclobut-1-en-1-yl)biphenyl-4-ylmethyl]-1H-imidazole-5-carboxylate] | 10 |  | 
11 | 0.00178 | CCc1nc2c(C)cc(C)nc2n1Cc1ccc(-c2ccccc2-c2c(O)c(=O)c2=O)cc1 (single isomer, unassigned) [Example 5, sodium salt of 3-[4'-(2-ethyl-5,7-dimethyl-3H-imidazo[4,5-b]pyrid-3-ylmethyl)biphenyl-2-yl]-4-hydroxycyclobut-3-ene-1,2-dione] | 1 |  | 1
12 | 0.00319 | CCCc1nc2c(C)cc(C)nc2n1Cc1ccc(-c2ccccc2-c2c(O)c(=O)c2=O)cc1 [Example 8, 3-[4'-(5 7-dimethyl-2-propyl-3H-imidazo[4,5-b]pyrid-3-ylmethyl)biphenyl-2-yl]-4-hydroxycyclobut-3-ene-1,2-dione] | < 10 | 10 | 
13 | 0.393 | CCc1nc2c(C)c(S(=O)(=O)N(C)C)c(C)nc2n1Cc1ccc(-c2ccccc2-c2c(O)c(=O)c2=O)cc1 [Example 11, 2-ethyl-3-[2'-(2-hydroxy-3,4-dioxocyclobut-1-en-1-yl)biphenyl-4-ylmethyl]-5,7, N,N-tetramethyl-3H-imidazo[4,5-b]pyridine-6-sulphonamide mono-ethyl acetate solvate] |  |  | 
14 | 0.0133 | CCc1nc2c(C)c(Cl)c(C)nc2n1Cc1ccc(-c2ccccc2-c2c(O)c(=O)c2=O)cc1 [Example 12, 3-[4'-(6-chloro-2-ethyl-5,7-dimethyl-3H-imidazo-[4,5-b]pyrid-3-ylmethyl)biphenyl-2-yl]-4-hydroxy-cyclobut-3-ene-1,2-dione hydrochloride] |  |  | 
15 | 0.00368 | CCCCC1=NC2(CCCC2)C(=O)N1Cc1ccc(-c2ccccc2-c2c(O)c(=O)c2=O)cc1 [Example 22, 3-[4'-(2-butyl-5-oxo-2-imidazoline-4-spirocyclopent-1-ylmethyl)biphenyl-2-yl]-4-hydroxycyclobut-3-ene-1,2-dione] | 30 |  | 
16 | 0.0976 | CCc1nc2c(C)cc(C)nc2n1Cc1ccc(-c2ccccc2-c2c(OC(C)C)c(=O)c2=O)cc1 [Example 1, 3-[4'-(2-ethyl-5,7-dimethyl-3H-imidazo[4,5-b]pyrid-3-ylmethyl)biphenyl-2-yl]-4-isopropoxycyclobut-3-ene-1,2-dione] | 30 |  | 
